Test results published in ChEMBL document CHEMBL3817848, “Synthesis and in vitro α-chymotrypsin inhibitory activity of 6-chlorobenzimidazole derivatives” (Bioorg Med Chem, 2016).
pIC50, pKi: −log10 of the molar value.

What was measured:
Homo sapiens = species: Homo sapiens; test: Inhibition of alpha-chymotrypsin (unknown origin) using N-succinyl-L-phenylalanine-p-nitroanilide as substrate at 500 uM preincubated for 25 mins by microplate reader method
[1] = Inhibition of alpha-chymotrypsin (unknown origin) using N-succinyl-L-phenylalanine-p-nitroanilide as substrate preincubated for 25 mins by microplate reader method; parameters: species or system Homo sapiens
[2] = Competitive inhibition of alpha-chymotrypsin (unknown origin) using N-succinyl-L-phenylalanine-p-nitroanilide as substrate; parameters: species or system Homo sapiens
[3] = Mixed inhibition of alpha-chymotrypsin (unknown origin) using n-succinyl-l-phenylalanine-p-nitroanilide as substrate; parameters: species or system Homo sapiens

`Cc1ccc(-c2nc3cc(Cl)ccc3[nH]2)cc1` gave an inhibition (Homo sapiens) of less than 50% and a pIC50 [1] of less than 3.30.
`O=[N+]([O-])c1ccc(Cl)c(-c2nc3ccc(Cl)cc3[nH]2)c1` gave an inhibition (Homo sapiens) of less than 50% and a pIC50 [1] of less than 3.30.
For `CC(C)c1ccc(-c2nc3ccc(Cl)cc3[nH]2)cc1`, the inhibition (Homo sapiens) was less than 50% and the pIC50 [1] was 3.37.
With `Oc1ccc(-c2nc3ccc(Cl)cc3[nH]2)c(O)c1` the inhibition (Homo sapiens) was greater than 50%, the pIC50 [1] was 4.46 and the pKi [2] was 4.48.
For `Clc1ccc2[nH]c(-c3ccccc3)nc2c1`, the inhibition (Homo sapiens) was less than 50% and the pIC50 [1] was less than 3.30.
Molecule `Clc1ccc2nc(-c3c(Cl)cccc3Cl)[nH]c2c1` has an inhibition (Homo sapiens) greater than 50%, a pIC50 [1] of 4.02 and a pKi [2] of 4.00.
Molecule `CN(C)c1ccc(-c2nc3ccc(Cl)cc3[nH]2)cc1` has an inhibition (Homo sapiens) greater than 50%, a pIC50 [1] of 4.62 and a pKi [2] of 4.76.
With `Oc1ccccc1-c1nc2cc(Cl)ccc2[nH]1` the inhibition (Homo sapiens) was less than 50% and the pIC50 [1] was less than 3.30.
With `Cn1c(-c2ccco2)nc2ccc(Cl)cc21` the inhibition (Homo sapiens) was greater than 50%, the pIC50 [1] was 4.03 and the pKi [2] was 4.15.
Molecule `Fc1ccccc1-c1nc2ccc(Cl)cc2[nH]1` has an inhibition (Homo sapiens) greater than 50%, a pIC50 [1] of 3.93 and a pKi [2] of 4.10.
Molecule `Clc1ccc2nc(-c3cccc(Br)c3)[nH]c2c1` has an inhibition (Homo sapiens) of less than 50% and a pIC50 [1] of 3.34.
`Clc1ccc2[nH]c(/C=C/c3ccccc3)nc2c1` showed an inhibition (Homo sapiens) of less than 50% and a pIC50 [1] of 3.31.
`N#Cc1ccc(-c2nc3cc(Cl)ccc3[nH]2)cc1` showed an inhibition (Homo sapiens) of less than 50% and a pIC50 [1] of less than 3.30.
`COc1cccc(-c2nc3ccc(Cl)cc3[nH]2)c1` gave a pKi [3] of 4.44, an inhibition (Homo sapiens) greater than 50% and a pIC50 [1] of 4.42.
`CCOc1cc(-c2nc3ccc(Cl)cc3[nH]2)ccc1O` gave an inhibition (Homo sapiens) greater than 50%, a pIC50 [1] of 4.80 and a pKi [2] of 4.76.
With `Clc1ccc2nc(-c3cccc4ccccc34)[nH]c2c1` the inhibition (Homo sapiens) was greater than 50%, the pIC50 [1] was 4.68 and the pKi [2] was 4.60.
`Clc1ccc2nc(-c3cccnc3)[nH]c2c1` gave an inhibition (Homo sapiens) greater than 50%, a pIC50 [1] of 4.31 and a pKi [2] of 4.30.
With `Clc1ccc(-c2nc3ccc(Cl)cc3[nH]2)c(Cl)c1` the inhibition (Homo sapiens) was greater than 50%, the pIC50 [1] was 4.45 and the pKi [2] was 4.40.
Molecule `COc1ccc(-c2nc3ccc(Cl)cc3[nH]2)cc1OC` has an inhibition (Homo sapiens) greater than 50%, a pIC50 [1] of 4.83 and a pKi [2] of 4.79.
Work on `O=[N+]([O-])c1ccc(-c2nc3cc(Cl)ccc3[nH]2)cc1` yielded an inhibition (Homo sapiens) of less than 50% and a pIC50 [1] of 3.33.
